# Biological target: hSortilin (Homo sapiens (Human), UniProt Q99523)
# Experiment: Neurotensin scintillation proximity assay, [125I]-neurotensin
# Conditions: displacement of [125I]-neurotensin binding to 6his-Sortilin; average of at least 2 determinations; read-out: IC50 [125I]Neurotensin SPA
# Experimental: Compound affinity was determined by measuring the displacement of
# [3H]-neurotensin or [125I]-neurotensin binding to hSortilin in SPA format. Total volume of 40 μl in 50 mM HEPES pH 7.4 assay buffer containing 100 mM NaCl, 2.0 mM CaCI2, 0.1% BSA and 0.1% Tween-20. […] IC50 values were calculated by nonlinear regression using the sigmoid concentration-response (variable slope) using CDD Vault software. All values reported are average of at least 2 determinations.
# hSortilin, sequence (Q99523 78-831): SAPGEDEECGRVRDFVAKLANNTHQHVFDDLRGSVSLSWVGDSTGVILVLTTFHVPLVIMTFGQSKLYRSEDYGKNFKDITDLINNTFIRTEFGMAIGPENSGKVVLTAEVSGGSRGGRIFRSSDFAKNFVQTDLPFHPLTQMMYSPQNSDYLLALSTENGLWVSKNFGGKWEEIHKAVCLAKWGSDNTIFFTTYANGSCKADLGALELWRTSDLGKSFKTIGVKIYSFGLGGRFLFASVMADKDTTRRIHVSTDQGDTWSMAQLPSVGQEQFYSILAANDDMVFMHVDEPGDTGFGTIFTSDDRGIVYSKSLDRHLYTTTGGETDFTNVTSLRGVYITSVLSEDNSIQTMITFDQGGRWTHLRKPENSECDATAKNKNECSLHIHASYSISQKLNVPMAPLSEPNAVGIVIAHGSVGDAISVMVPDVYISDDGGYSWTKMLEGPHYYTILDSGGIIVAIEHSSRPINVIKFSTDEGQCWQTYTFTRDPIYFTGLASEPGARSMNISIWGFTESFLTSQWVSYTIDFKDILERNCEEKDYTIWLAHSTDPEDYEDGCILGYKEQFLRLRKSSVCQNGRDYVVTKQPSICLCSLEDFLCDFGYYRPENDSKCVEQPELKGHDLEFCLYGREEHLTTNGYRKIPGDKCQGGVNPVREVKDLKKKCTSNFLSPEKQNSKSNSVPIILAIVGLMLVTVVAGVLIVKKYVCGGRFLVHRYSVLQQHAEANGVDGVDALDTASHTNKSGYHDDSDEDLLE
smiles,measurement,value
"CC[C@H](C)[C@H](NC(C)=O)C(=O)N[C@@H](CCC(C)(C)C)C(=O)O [Example 16, (S)-2-((2S,3S)-2-Acetamido-3-methylpentanamido)-5,5-dimethylhexanoic Acid]",IC50,290 nM

# From patent US20240217922A1, “MODULATORS OF SORTILIN ACTIVITY” (Insusense ApS, priority 2021, published 2024)
